On to `CCOC(=O)C(C#N)=Cc1ccc(Cl)cc1`, for which the melting point fell in the range of 137 to 138 °C.

On to `O=C(O)CSc1ccccc1C(=O)O`, for which the melting point came out at 218 °C.

Regarding `NCCCCCCCC(=O)O`, the melting point was determined as 195 °C.

In turn, `O=[N+]([O-])/C=C/c1ccccc1` displayed a melting point of 58 °C.

The compound `CCC(C)(O)CNC1C2CCC(C)(C1O)C2(C)C` (centres undefined) gave a melting point of 119 °C.

Compound `O=C1NC(=O)C(=Cc2ccc(-c3cccc([N+](=O)[O-])c3)o2)C(=O)N1` gave a melting point of 280 °C.

The compound `Clc1cc(Cl)c2c(c1Cl)Oc1ccccc1O2` displayed a melting point of 128 °C.

Regarding `COC(=O)c1ccccc1C(=O)c1ccccc1`, the melting point is 52 °C.

As to `CCCCOC(=O)C1(O)c2ccccc2-c2ccccc21`, the melting point is 71 °C.

The compound `CCOC(=O)c1[nH]c2cc(Cl)cc(Cl)c2c1C=O` yielded a melting point of 213 to 217 °C.

On to `O=[N+]([O-])c1c(Cl)cc(Cl)cc1C(Cl)Cl`, for which the melting point was found to be 45 °C.

`Cc1cccc2ccccc12` gave a melting point of 34 °C.

`O=C(O)CCC(=O)c1ccc(Cl)cc1` had a melting point of 129 to 132 °C.

The compound `CCCCCCCCCCCCCCCCCCOCC(O)CO` (centres undefined) came in with a melting point of 70.5 °C.

Compound `O=C1Cc2cc(O)ccc2O1` displayed a melting point of 190 to 195 °C.

Compound `CCc1nc2ccccc2[nH]1` displayed a melting point of 175 °C.

`CCN(CC)c1c([N+](=O)[O-])cc(C(F)(F)F)c(N)c1[N+](=O)[O-]` displayed a melting point of 98.5 °C.

For the compound `COc1ccc(C#N)cn1`, the melting point was in the range of 94 to 95 °C.

Take `CC(C)(C)OC(=O)N1CSC[C@H]1C(=O)O`: the melting point was in the range of 132 to 136 °C.

`Cc1ccc(C(Br)C(=O)c2ccc(Cl)cc2)cc1` (centres undefined) came in with a melting point of 76 to 78 °C.

The compound `Nc1ccccc1CCc1ccccc1N` yielded a melting point of 72 to 77 °C.

Regarding `CC(C)(C)OC(=O)N1CCN(c2ccc(CN)cc2)CC1`, the melting point was 83 to 87 °C.

`COc1cc(I)c(OC)cc1Cl` gave a melting point of 115 to 116 °C.

For the compound `C/C(=N\c1cccc(C(=O)O)c1)c1c(O)c2ccccc2n(-c2ccccc2)c1=O`, the melting point is 242 to 243 °C.

The compound `CCOC(=O)C(C#N)=C1Oc2ccccc2N1C` had a melting point of 135 to 137 °C.

For the compound `Nc1cccc(-c2cnco2)c1`, the melting point was 92 to 95 °C.

As to `CN(C)c1ccc(C(Br)=NNc2ccc([N+](=O)[O-])cc2)cc1`, the melting point was found to be 188 °C.

As for `Cc1cccc(C)c1NC(=O)CN1CCN(CCCC(c2ccc(F)cc2)c2ccc(F)cc2)CC1`, the melting point was found to be 159 °C.

As for `O=[N+]([O-])c1cc(C(F)(F)F)ccc1Oc1ccccc1Br`, the melting point lay within 58 to 62 °C.

As for `CN(C)S(C)(=O)=O`, the melting point was in the range of 49 to 50 °C.

`O=Cc1c[nH]c2ccc([N+](=O)[O-])cc12` came in with a melting point of 300 °C.

As for `N#CC(=Cc1ccccc1)C(=O)O`, the melting point was 175 °C.

`O=C(O)CN=C(S)C(=S)NCC(=O)O` came in with a melting point of 220 °C.

On to `O=Cc1cccc(-c2ccncc2)c1`, for which the melting point worked out at 48 °C.

Take `CCOC(=O)c1csc(C2COc3ccccc3O2)n1` (centres undefined): the melting point was in the range of 66.5 to 69.8 °C.

Take `COc1ccccc1-c1nnc2n1CN(c1ccccc1C)CS2`: the melting point was in the range of 239 to 240 °C.

With `COC(=O)C1=C(C)NC(CBr)=C(C(=O)OCCCl)C1c1cccc([N+](=O)[O-])c1` (centres undefined), the melting point was in the range of 205 to 206 °C.

In the case of `Nc1ccc(Cl)nn1`, the melting point lay in the range of 210 to 211 °C.

Regarding `C=C[Si]12OCCN(CCO1)CCO2`, the melting point lay within 163 to 165 °C.

The compound `Brc1cnc(N2CCCC2)nc1OCc1ccccc1` displayed a melting point of 107 °C.

`O=S(=O)(Cl)c1ccccc1Br` came in with a melting point of 50 to 51 °C.

`Cn1cc2cc([N+](=O)[O-])ccc2n1` had a melting point of 129 °C.

`CCOC(=O)C=Cc1ccc(N)cc1` displayed a melting point of 73 °C.

As for `O=C(O)CC[C@H](NC(=O)OCc1ccccc1)C(=O)O`, the melting point lay within 118 to 121 °C.

Compound `CN(C)c1ccc(N=c2cc(-c3ccccc3)oc(-c3ccccc3)c2)cc1` gave a melting point of 148 °C.

`CCC(CC)(CBr)CBr` had a melting point of 40 °C.

In turn, `Cc1ccc2ccccc2c1[N+](=O)[O-]` gave a melting point of 81.5 °C.

Consider `CC(C=Cc1ccc(C=CC(C)=NO)cc1)=NO`, for which the melting point is 280 °C.

For `O=P1(NCCCl)OCCCN1CCCl` (centres undefined), the melting point came to 43.4 °C.

On to `O=C(CCl)OCCOC(=O)CCl`, for which the melting point amounted to 45.5 °C.

In turn, `CNC(=O)Oc1ccccc1OC(CCl)OC` (centres undefined) showed a melting point of 80 °C.

`Nc1nnc(-c2ccccc2)c(Nc2ccc(Cl)cc2Cl)n1` displayed a melting point of 222 to 223 °C.

Take `CCOC(=O)C1=C(C)OC(N)=C(C#N)C1c1ccc(N2CCOCC2)cc1` (centres undefined): the melting point is 152 to 159 °C.

The compound `C=C1C2CC(C(=C(c3ccccc3)c3ccccc3)C2c2ccccc2)C1(C)C` (centres undefined) registered a melting point of 115 °C.

`CC12CCC3C(CCC4CC=CCC43C)C1CC=C2CCc1ccccc1` (centres undefined) displayed a melting point of 118 °C.

`Cc1nc(N)ccc1Br` registered a melting point of 82 to 83 °C.

The compound `O=C(NCCNC(=O)c1ccccc1)c1ccccc1` showed a melting point of 244 °C.

In turn, `CCCCCCCCCCCCCN` displayed a melting point of 27.4 °C.

On to `Oc1ccc(Cl)c2ccccc12`, for which the melting point was 117 to 120 °C.

Consider `COC(=O)C(Br)C(Br)c1cccc(C(Br)C(Br)C(=O)OC)c1` (centres undefined), for which the melting point was determined as 145 °C.

For the compound `CCOC(=O)C1C(c2ccc(OC)cc2)C(C(=O)OCC)C(O)(C(F)(F)F)NC1(O)C(F)(F)F` (centres undefined), the melting point was found to be 109 °C.

`COc1cc(OC)c([N+](=O)[O-])c(OC)c1` yielded a melting point of 152 °C.

For `O=C(O)c1ccc(C(=O)O)c([N+](=O)[O-])c1`, the melting point lay within 270 to 272 °C.

In turn, `O=C(Oc1ccc(Cl)cc1)c1c(Cl)c(Cl)c(C(=O)Oc2ccc(Cl)cc2)c(Cl)c1Cl` showed a melting point of 244 °C.

For `CC(=O)c1c(C)c(C(=O)O)n(C)c1C`, the melting point is 135 to 137 °C.

In the case of `O=C1C=C(O)CC(c2ccccc2)C1` (centres undefined), the melting point was found to be 187 °C.

`CCCCCCCCCCc1ccc(NC(=O)c2ccc(C)cc2)cc1` returned a melting point of 114 °C.

As for `CSCCC(N)C(=O)O` (centres undefined), the melting point was 281 °C.

Turning to `O=S(=O)(c1ccc(Cl)cc1)n1cccc1`, the melting point is 116 to 118 °C.

Consider `COc1ccc(C(=O)c2ccccc2F)cc1[N+](=O)[O-]`, for which the melting point is 133 to 139 °C.

For `CCCc1ccc(O)cc1O`, the melting point turned out to be 82.5 °C.

As to `BrCCc1ccccc1`, the melting point is -56 °C.

For the compound `O=C1CCCC2=C1[C@@H](c1cccc([N+](=O)[O-])c1)[C@@H]1C(=O)CCC[C@@]1(O)O2`, the melting point stood at 219 °C.

Consider `Nc1ccc(Oc2ccc([N+](=O)[O-])cc2)cc1`, for which the melting point is 132 to 134 °C.

Compound `C#Cc1ccc(-c2cnco2)cc1` returned a melting point of 76 to 77 °C.

`OCCOc1ccccc1OCCO`: the melting point is 78 to 82 °C.

Take `Oc1c(-c2ccccc2)cccc1-c1ccccc1`: the melting point amounted to 102 °C.

`Cc1ncc([N+](=O)[O-])n1CC(C)O` (centres undefined): the melting point came to 76 °C.

`ON=C1CCCc2nonc21` gave a melting point of 166 to 168 °C.

`O=Cc1cccn1S(=O)(=O)c1ccccc1`: the melting point lay within 76 to 77 °C.

As for `COc1ccc(C(=O)OC(COc2ccc(C=CC(=O)c3ccccc3)cc2)COc2ccc(C(=O)C=Cc3ccccc3)cc2)cc1` (centres undefined), the melting point is 74 °C.

As for `CNC(=O)Oc1ccc2c(c1)C1(C)CCN(C)OC1N2C` (centres undefined), the melting point was 129 °C.

In the case of `NC(CC(=O)O)c1ccccc1` (racemic), the melting point was found to be 222 °C.

`Nc1ccc(Cl)cc1C(F)(F)F` yielded a melting point of 9 °C.

Consider `CCOC(=O)C1Cc2cc3c(cc2NC1=O)NC(=O)C(C(=O)OCC)C3` (centres undefined), for which the melting point came to 242 °C.

As to `O=C(O)c1ccccc1-n1cccc1`, the melting point is 104 °C.

On to `CC(=O)/C=C/c1ccc([N+](=O)[O-])o1`, for which the melting point was 192 to 195 °C.

Compound `O=C(O)Cc1c[nH]c2ccc(Br)cc12` displayed a melting point of 141 to 148 °C.

Regarding `COc1ccccc1OCCNCC(O)COc1cccc2[nH]c3ccccc3c12` (centres undefined), the melting point turned out to be 114 °C.

`COc1ccc2c(c1O)CN1CCC(=O)CC1C2O` (centres undefined) had a melting point of 157 °C.

Take `Nc1ccc2c(c1)C(=O)c1ccccc1-2`: the melting point was 152 to 157 °C.

The compound `O=C(O)C(O)C(F)(F)F` (centres undefined) gave a melting point of 69 °C.

In turn, `CCOC(C)=NOc1ccc([N+](=O)[O-])cc1[N+](=O)[O-]` returned a melting point of 112 °C.

As to `Nc1nn2c(C(F)(F)F)cc(=O)[nH]c2c1/N=N/c1cccc(F)c1`, the melting point was in the range of 305 to 306 °C.

In the case of `COC(=O)c1ccc(C(=O)OC)c(F)c1`, the melting point came to 82 °C.

In the case of `O=C(Nc1ccccc1)OC1CCCCCC1OC(=O)Nc1ccccc1` (centres undefined), the melting point fell in the range of 217 to 219 °C.

`COc1cc(/C=N/c2ccccc2)ccc1O` gave a melting point of 140 °C.

`C=CC1(C(C)CCC)C(=O)NC(=O)NC1=O` (centres undefined): the melting point is 90 °C.

Compound `CCCCCCCCCCC#CC#CCCCCCCC(=O)O` showed a melting point of 51 to 52 °C.

In the case of `O=[N+]([O-])c1ccc2c(c1)OCO2`, the melting point was in the range of 145 to 149 °C.

In the case of `C=C(C)CCCCCCCC`, the melting point is -51 °C.

For the compound `NC(=O)C(N)c1ccccc1` (centres undefined), the melting point was 125 to 129 °C.

Compound `O=Cc1ccccc1OCc1ccccc1Cl` gave a melting point of 84 to 86 °C.

In turn, `O=Cc1c[nH]nc1-c1ccc(C(F)(F)F)cc1` yielded a melting point of 113 to 115 °C.

In turn, `CCC1CC(OP(=O)(O)O)CC(C)(C)N1O` (centres undefined) showed a melting point of 270 °C.

For the compound `CCCCCCCCCCCCC(C)C`, the melting point is -8 °C.

Take `Nc1c(Br)cccc1C(=O)O`: the melting point was in the range of 173 to 175 °C.

`O=C(SSC(=O)c1ccccc1)c1ccccc1` displayed a melting point of 134 °C.

`O=C(c1ccc(C(=O)C(Cl)(Cl)Cl)cc1)C(Cl)Cl` had a melting point of 136 °C.

For orientation: melting point means the temperature, or range, at which the solid turns liquid.

The values above are taken from a melting point compilation (Tetko et al.).
